Measurements published in patent publication US20260306640A1, “TECHNOLOGIES TARGETING CELL STATES” (Auron Therapeutics, Inc., priority 2023, published 2026).

Tests used:
KAT2B = KAT2B (Homo sapiens, UniProt Q92831); test: KAT2B degradation, Western Blot (Jess), NCI-H1048 cells; type: cell-based; design: degrader, Western blot (Jess); details: NCI-H1048 cells, KAT2B, 24 h, Western Blot, vs DMSO; read-out: KAT2B NCI-H1048 DC50
Description: (§1) MOLM-13 cells or NCI-H1048 cells were used for Western Blot analysis of KAT2A degradation. KAT2B degradation can be measured in a similar manner with NCI-H1048 cells.
(§2) H1048 cells were maintained at 37° C. in 5% CO2 and 90% humidity in HITES medium with 5% fetal bovine serum (FBS). HITES medium was […] with the following additions: 0.005 mg/ml Insulin, 0.01 mg/ml Transferrin, 30 nM Sodium selenite, 10 nM Hydrocortisone, 10 nM beta-estradiol, and extra 2 mM L-glutamine (for final concentration of 4.5 mM). Cells were plated in full media at 1 million cells/2 mL in a 6-well tissue culture treated plate with or without compounds for 24 h at 37° C. in 5% CO2.
(§3) MOLM-13 cells or NCI-H1048 cells were washed with PBS, then lysed with RIPA buffer containing 1×protease and phosphatase inhibitors (SantaCruz Biotechnologies Cat #sc-24948A). Protein was isolated by centrifugation at 12,000×g for 10 minutes at 4° C. and supernatant was collected. Protein was quantified via Bradford assay. Samples were diluted to 4 μg lysate in 16 μL RIPA buffer and then 4 μL of Jess Sample Buffer. Samples were heated at 95° C. for 5 minutes. Samples were loaded onto 12-230 kDa Jess™ Separation Module, 8×25 capillary cartridges (SM-W004, Biotechne). Antibodies loaded were: Primary antibody for KAT2A (GCN5L2 (C26A10) Rabbit mAb (3305, CST)) and for KAT2B (PCAF (C14G9)) Rabbit mAb (3378, CST) at 1:1000 and Anti-Rabbit Detection Module for Jess™ (Cat No #DM-001, Biotechne). Signal was detected by chemiluminescence.
(§4) DC50 values were determined from percent reduction of protein as compared to the DMSO control.

KAT2A = KAT2A (Homo sapiens, UniProt Q92830); test: KAT2A degradation, Western Blot (Jess), NCI-H1048 cells; type: cell-based; design: degrader, Western blot (Jess); details: NCI-H1048 cells, KAT2A, 24 h, Western Blot, vs DMSO; read-out: KAT2A NCI-H1048 DC50
Description: as §1, §2, §3, §4

Chain of KAT2A (Q92830 whole entry): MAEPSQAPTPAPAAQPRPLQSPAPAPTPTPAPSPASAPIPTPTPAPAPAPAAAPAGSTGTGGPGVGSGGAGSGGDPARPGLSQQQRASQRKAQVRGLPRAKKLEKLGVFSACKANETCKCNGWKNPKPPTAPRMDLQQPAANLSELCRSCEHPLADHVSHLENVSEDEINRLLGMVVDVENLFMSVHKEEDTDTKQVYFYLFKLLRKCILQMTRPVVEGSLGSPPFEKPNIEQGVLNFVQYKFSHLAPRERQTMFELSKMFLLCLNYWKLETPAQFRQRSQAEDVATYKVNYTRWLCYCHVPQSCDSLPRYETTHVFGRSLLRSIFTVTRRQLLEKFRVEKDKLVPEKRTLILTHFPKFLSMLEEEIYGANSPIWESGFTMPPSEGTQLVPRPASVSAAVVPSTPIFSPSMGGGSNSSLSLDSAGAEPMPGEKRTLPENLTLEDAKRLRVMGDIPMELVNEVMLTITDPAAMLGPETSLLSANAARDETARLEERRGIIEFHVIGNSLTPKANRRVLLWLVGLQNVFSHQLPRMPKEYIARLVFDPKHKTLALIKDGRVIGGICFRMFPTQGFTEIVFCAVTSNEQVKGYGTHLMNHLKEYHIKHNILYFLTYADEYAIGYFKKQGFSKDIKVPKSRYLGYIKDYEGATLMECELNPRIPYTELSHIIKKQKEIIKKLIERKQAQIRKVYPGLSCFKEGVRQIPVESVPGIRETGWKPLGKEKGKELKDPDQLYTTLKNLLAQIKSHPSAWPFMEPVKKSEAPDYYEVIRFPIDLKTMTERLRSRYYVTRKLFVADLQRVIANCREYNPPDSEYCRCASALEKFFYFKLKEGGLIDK
Chain of KAT2B (Q92831 whole entry): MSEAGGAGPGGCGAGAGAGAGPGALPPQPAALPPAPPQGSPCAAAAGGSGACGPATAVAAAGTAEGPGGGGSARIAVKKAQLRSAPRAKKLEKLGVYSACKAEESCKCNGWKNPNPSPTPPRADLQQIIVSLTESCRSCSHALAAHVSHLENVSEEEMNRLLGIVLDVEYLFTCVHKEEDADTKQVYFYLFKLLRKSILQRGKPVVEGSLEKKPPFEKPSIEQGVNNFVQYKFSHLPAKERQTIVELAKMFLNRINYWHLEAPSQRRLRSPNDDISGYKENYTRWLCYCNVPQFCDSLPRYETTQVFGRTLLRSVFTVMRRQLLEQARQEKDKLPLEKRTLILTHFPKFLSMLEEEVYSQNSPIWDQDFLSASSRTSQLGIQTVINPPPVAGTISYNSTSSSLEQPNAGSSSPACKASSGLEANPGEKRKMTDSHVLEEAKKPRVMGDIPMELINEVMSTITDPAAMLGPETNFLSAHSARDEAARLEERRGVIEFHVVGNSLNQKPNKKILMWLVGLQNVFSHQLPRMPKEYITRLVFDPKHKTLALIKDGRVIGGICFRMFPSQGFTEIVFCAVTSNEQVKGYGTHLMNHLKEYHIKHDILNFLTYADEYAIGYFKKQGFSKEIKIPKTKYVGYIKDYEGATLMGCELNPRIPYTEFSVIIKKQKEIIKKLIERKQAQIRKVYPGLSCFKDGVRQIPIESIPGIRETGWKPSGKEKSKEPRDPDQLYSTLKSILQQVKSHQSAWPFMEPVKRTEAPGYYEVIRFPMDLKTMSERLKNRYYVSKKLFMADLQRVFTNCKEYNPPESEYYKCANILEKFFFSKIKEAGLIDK

Row | DC50 (KAT2B) | DC50 (KAT2A) | SMILES
1 | > 30 nM | > 30 nM | CN1C[C@H](Nc2cnn(C)c(=O)c2Br)C[C@H](c2ccc(CN3CCN(C4CCC(N5CCC(=O)NC5=O)CC4)CC3)cc2)C1 (stereo partly shown) [Compound 206]
2 | > 30 nM | < 1 nM | CN1C[C@H](Nc2cnn(C)c(=O)c2Cl)C[C@H](c2ccc(C(=O)N3CCC4(CC3)CCN(c3cnn(C5CCC(=O)NC5=O)c3)CC4)cc2)C1 (stereo partly shown) [Compound 207]
3 | < 1 nM | < 1 nM | CN1C[C@H](Nc2cnn(C)c(=O)c2Cl)C[C@H](c2ccc(C(=O)N3CCC4(CC3)CCN(c3ccc5c(c3)oc(=O)n5C3CCC(=O)NC3=O)CC4)cc2)C1 (stereo partly shown) [Compound 209]
4 | < 1 nM | 1 to 30 nM | CN1C[C@H](Nc2cnn(C)c(=O)c2Br)C[C@H](c2ccc(C(=O)N3CCC4(CC3)CCN(c3cnn(C5CCC(=O)NC5=O)c3)CC4)cc2)C1 (stereo partly shown) [Compound 210]
5 | < 1 nM | < 1 nM | CN1C[C@H](Nc2cnn(C)c(=O)c2Br)C[C@H](c2ccc(C(=O)N3CCC4(CC3)CCN(c3ccc5c(C6CCC(=O)NC6=O)nn(C)c5c3)CC4)cc2)C1 (stereo partly shown) [Compound 211]
6 | > 30 nM | 1 to 30 nM | CN1C[C@H](Nc2cnn(C)c(=O)c2Br)C[C@H](c2ccc(C(=O)N3CCC4(CC3)CCN(c3ccc5nnn(C6CCC(=O)NC6=O)c5c3)CC4)cc2)C1 (stereo partly shown) [Compound 212]
7 | 1 to 30 nM | < 1 nM | Cc1cc(N2CCC3(CCN(C(=O)c4ccc([C@H]5C[C@@H](Nc6c(F)nn(C)c(=O)c6Br)CN(C)C5)cc4)CC3)CC2)ccc1C1CCC(=O)NC1=O (stereo partly shown) [Compound 213]
8 | > 30 nM | 1 to 30 nM | CN1C[C@H](Nc2cnn(C)c(=O)c2Cl)C[C@H](c2ccc(C(=O)N3CCC4(CC3)CCN(c3ccc5nnn(C6CCC(=O)NC6=O)c5c3)CC4)cc2)C1 (stereo partly shown) [Compound 214]
9 | < 1 nM | < 1 nM | CN1C[C@H](Nc2cnn(C)c(=O)c2Cl)C[C@H](c2ccc(C(=O)N3CCC4(CCN(Cc5ccc(C6CCC(=O)NC6=O)c(F)c5)CC4)CC3)cc2)C1 (stereo partly shown) [Compound 215]
10 | < 1 nM | < 1 nM | CCn1ncc(N[C@@H]2C[C@H](c3ccc(C(=O)N4CCC5(CC4)CCN(c4ccc(C6CCC(=O)NC6=O)c(C)c4)CC5)cc3)CN(C)C2)c(Br)c1=O (stereo partly shown) [Compound 216]
11 | > 30 nM | 1 to 30 nM | CN1C[C@H](Nc2cnn(C)c(=O)c2Br)C[C@H](c2ccc(C(=O)N3CCC4(CC3)CCN(c3ccn(C5CCC(=O)NC5=O)c(=O)c3)CC4)cc2)C1 (stereo partly shown) [Compound 217]
12 | 1 to 30 nM | < 1 nM | Cc1cc(C2CCC(=O)NC2=O)c(F)cc1N1CCC2(CCN(C(=O)c3ccc([C@H]4C[C@@H](Nc5cnn(C)c(=O)c5Cl)CN(C)C4)cc3)CC2)CC1 (stereo partly shown) [Compound 218]
13 | 1 to 30 nM | < 1 nM | CN1C[C@H](Nc2cnn(C)c(=O)c2Br)C[C@H](c2ccc(C(=O)N3CCC4(CC3)CCN(c3ccc(C5CCC(=O)NC5=O)cc3C(F)(F)F)CC4)cc2)C1 (stereo partly shown) [Compound 220]
14 | > 30 nM | > 30 nM | CN1C[C@H](Nc2cnn(C)c(=O)c2Br)C[C@H](c2ccc(C(=O)N3CCC4(CC3)CCN(c3ccc(C5CCC(=O)NC5=O)c(C(F)(F)F)c3)CC4)cc2)C1 (stereo partly shown) [Compound 221]
15 | > 30 nM | > 30 nM | CN1C[C@H](Nc2cnn(C)c(=O)c2Cl)C[C@H](c2ccc(C(=O)N3CCC4(CC3)CCN(c3ccc(C5CCC(=O)NC5=O)c(C(F)(F)F)c3)CC4)cc2)C1 (stereo partly shown) [Compound 222]
16 | > 30 nM | > 30 nM | Cc1c(N[C@@H]2C[C@H](c3ccc(C(=O)N4CCC5(CC4)CCN(c4ccc(C6CCC(=O)NC6=O)c(C(F)(F)F)c4)CC5)cc3)CN(C)C2)cnn(C)c1=O (stereo partly shown) [Compound 224]
17 | 1 to 30 nM | < 1 nM | Cc1c(N[C@@H]2C[C@H](c3ccc(C(=O)N4CCC5(CC4)CCN(c4ccc(C6CCC(=O)NC6=O)cc4F)CC5)cc3)CN(C)C2)cnn(C)c1=O (stereo partly shown) [Compound 225]
18 | 1 to 30 nM | < 1 nM | Cc1c(N[C@@H]2C[C@H](c3ccc(C(=O)N4CCC5(CC4)CCN(c4ccc(C6CCC(=O)NC6=O)cc4C(F)(F)F)CC5)cc3)CN(C)C2)cnn(C)c1=O (stereo partly shown) [Compound 226]
19 | 1 to 30 nM | < 1 nM | CN1C[C@H](Nc2cnn(C)c(=O)c2Cl)C[C@H](c2ccc(C(=O)N3CCC4(CC3)CCN(c3ccc(C5CCC(=O)NC5=O)cc3C(F)(F)F)CC4)cc2)C1 (stereo partly shown) [Compound 227]

Row | DC50 (KAT2B) | DC50 (KAT2A) | SMILES
20 | 1 to 30 nM | 1 to 30 nM | Cc1c(N[C@@H]2C[C@H](c3ccc(C(=O)N4CCC5(CC4)CCN(c4cc(C(F)(F)F)c(C6CCC(=O)NC6=O)cn4)CC5)cc3)CN(C)C2)cnn(C)c1=O (stereo partly shown) [Compound 230]
21 | < 1 nM | < 1 nM | CN1C[C@H](Nc2cnn(C)c(=O)c2Cl)C[C@H](c2ccc(C(=O)N3CCC4(CC3)CCN(c3cc(C5CCC(=O)NC5=O)ccn3)CC4)cc2)C1 (stereo partly shown) [Compound 234]
22 | < 1 nM | < 1 nM | Cc1c(N2CCC3(CCN(C(=O)c4ccc([C@H]5C[C@@H](Nc6cnn(C)c(=O)c6Br)CN(C)C5)cc4)CC3)CC2)ccc(C2CCC(=O)NC2=O)c1F (stereo partly shown) [Compound 235]
23 | 1 to 30 nM | < 1 nM | Cc1c(N2CCC3(CCN(C(=O)c4ccc([C@H]5C[C@@H](Nc6cnn(C)c(=O)c6C)CN(C)C5)cc4)CC3)CC2)ccc(C2CCC(=O)NC2=O)c1F (stereo partly shown) [Compound 236]
24 | 1 to 30 nM | < 1 nM | Cc1c(N2CCC3(CCN(C(=O)c4ccc([C@H]5C[C@@H](Nc6cnn(C)c(=O)c6Cl)CN(C)C5)cc4)CC3)CC2)ccc(C2CCC(=O)NC2=O)c1F (stereo partly shown) [Compound 237]
25 | 1 to 30 nM | < 1 nM | Cc1c(N[C@@H]2C[C@H](c3ccc(C(=O)N4CCC5(CC4)CCN(c4ccc(C6CCC(=O)NC6=O)nc4)CC5)cc3)CN(C)C2)cnn(C)c1=O (stereo partly shown) [Compound 241]
26 | > 30 nM | 1 to 30 nM | Cc1cc(N2CCC3(CCN(C(=O)c4ccc([C@H]5C[C@@H](Nc6cnn(C)c(=O)c6C)CN(C)C5)cc4)CC3)CC2)c(F)cc1C1CCC(=O)NC1=O (stereo partly shown) [Compound 244]
27 | 1 to 30 nM | < 1 nM | Cc1cc(N2CCC3(CCN(C(=O)c4ccc([C@H]5C[C@@H](Nc6cnn(C)c(=O)c6C)CN(C)C5)cc4)CC3)CC2)cnc1C1CCC(=O)NC1=O (stereo partly shown) [Compound 245]
28 | < 1 nM | < 1 nM | Cc1cc(N2CCC3(CCN(C(=O)c4ccc([C@H]5C[C@@H](Nc6cnn(C)c(=O)c6Br)CN(C)C5)cc4)CC3)CC2)cnc1C1CCC(=O)NC1=O (stereo partly shown) [Compound 246]
29 | 1 to 30 nM | < 1 nM | Cc1cc(N2CCC3(CCN(C(=O)c4ccc([C@H]5C[C@@H](Nc6cnn(C)c(=O)c6Cl)CN(C)C5)cc4)CC3)CC2)cnc1C1CCC(=O)NC1=O (stereo partly shown) [Compound 247]
30 | 1 to 30 nM | < 1 nM | Cc1cc(C2CCC(=O)NC2=O)ccc1N1CCC2(CCN(C(=O)c3ccc([C@H]4C[C@@H](Nc5cnn(C)c(=O)c5Br)CN(C)C4)cc3)CC2)CC1 (stereo partly shown) [Compound 248]
31 | 1 to 30 nM | < 1 nM | Cc1cc(C2CCC(=O)NC2=O)ccc1N1CCC2(CCN(C(=O)c3ccc([C@H]4C[C@@H](Nc5cnn(C)c(=O)c5C)CN(C)C4)cc3)CC2)CC1 (stereo partly shown) [Compound 249]
32 | 1 to 30 nM | < 1 nM | CN1C[C@H](Nc2cnn(C)c(=O)c2Cl)C[C@H](c2ccc(C(=O)N3CCC4(CC3)CCN(c3ccc(C5CCC(=O)NC5=O)c(F)c3F)CC4)cc2)C1 (stereo partly shown) [Compound 251]
33 | 1 to 30 nM | < 1 nM | Cc1c(N[C@@H]2C[C@H](c3ccc(C(=O)N4CCC5(CC4)CCN(c4ccc(C6CCC(=O)NC6=O)c(F)c4F)CC5)cc3)CN(C)C2)cnn(C)c1=O (stereo partly shown) [Compound 252]
34 | 1 to 30 nM | < 1 nM | Cc1c(C2CCC(=O)NC2=O)ccc(N2CCC3(CCN(C(=O)c4ccc([C@H]5C[C@@H](Nc6cnn(C)c(=O)c6Br)CN(C)C5)cc4)CC3)CC2)c1F (stereo partly shown) [Compound 254]
35 | < 1 nM | < 1 nM | Cc1cc(N2CCC3(CCN(C(=O)c4ccc([C@H]5C[C@@H](Nc6cnn(C)c(=O)c6C)CN(C)C5)cc4)CC3)CC2)cc(F)c1C1CCC(=O)NC1=O (stereo partly shown) [Compound 255]
36 | 1 to 30 nM | < 1 nM | Cc1c(C2CCC(=O)NC2=O)ccc(N2CCC3(CCN(C(=O)c4ccc([C@H]5C[C@@H](Nc6cnn(C)c(=O)c6C)CN(C)C5)cc4)CC3)CC2)c1F (stereo partly shown) [Compound 256]
37 | 1 to 30 nM | < 1 nM | COc1cc(C2CCC(=O)NC2=O)ccc1N1CCC2(CCN(C(=O)c3ccc([C@H]4C[C@@H](Nc5cnn(C)c(=O)c5C)CN(C)C4)cc3)CC2)CC1 (stereo partly shown) [Compound 257]
38 | > 30 nM | < 1 nM | COc1cc(C2CCC(=O)NC2=O)ccc1N1CCC2(CCN(C(=O)c3ccc([C@H]4C[C@@H](Nc5cnn(C)c(=O)c5Cl)CN(C)C4)cc3)CC2)CC1 (stereo partly shown) [Compound 258]
